Source: patent US6914045B2, “Glycopeptide antibiotics” (Wyeth Holdings Corporation, priority 2001, dated 2005)
Values after ≈ are worked out from the molar mass of the structure shown.

What was measured:
Assay in all cases: in vitro antibacterial evaluation, MIC by broth dilution
Format in all cases: cell-based
Escherichia coli = settings: 18 hours at 35° C.
Streptococcus sp. = settings: broth dilution, 18 hours at 35° C.
Procedure, shortened: (§1)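 Inoculum 5×10^5 CFU/mL; concentrations 64 to 0.06 μg/mL; MIC defined as lowest inhibitory level. Conducted by broth dilution under NCCLS guidelines.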

Staphylococcus sp. = settings: broth dilution, 18 hours at 35° C.
Procedure, shortened: as §1

Enterococcus sp. = settings: broth dilution, 18 hours at 35° C.
Procedure, shortened: as §1

## COc1ccc(COCC2OC(OC3C(CO)OC(Oc4ccc(CC5NC(=O)C(C(C)c6ccccc6)NC(=O)CNC(=O)C(CO)NC(=O)C(C(O)C6CNC(=N)N6C6OC(CO)C(O)C(O)C6O)NC(=O)C(C(O)C6CNC(=N)N6)NC5=O)cc4)C(O)C3O)C(O)C(O)C2O)c2ccccc12 (stereo not shown) [Example 240]
Escherichia coli
  MIC Escherichia coli (ATCC 25922): 128 µg/mL (≈ 87.3 µM)
  MIC Escherichia coli (GC 4559): >128 µg/mL
  MIC Escherichia coli (GC 4560): 2 µg/mL (≈ 1.36 µM)
Streptococcus sp.
  MIC Streptococcus agalactiae (GC 4564): 0.5 µg/mL (≈ 0.341 µM)
  MIC Streptococcus pneumoniae (ATCC 6301): <0.12 µg/mL
  MIC Streptococcus pneumoniae (GC 1894): <0.12 µg/mL
  MIC Streptococcus pneumoniae (GC 4565): 0.25 µg/mL (≈ 0.171 µM)
  MIC Streptococcus pyogenes (GC 4563): 0.5 µg/mL (≈ 0.341 µM)
Streptococcus sp.; inoculum 5×10^5 CFU/mL, strain ATCC 6301
  MIC Streptococcus pneumoniae (ATCC 6301): <0.12 µg/mL
Streptococcus sp.; inoculum 5×10^5 CFU/mL, strain GC 1894
  MIC Streptococcus pneumoniae (GC 1894): <0.12 µg/mL
Streptococcus sp.; inoculum 5×10^5 CFU/mL, strain GC 4563
  MIC Streptococcus pyogenes (GC 4563): 0.5 µg/mL (≈ 0.341 µM)
Streptococcus sp.; inoculum 5×10^5 CFU/mL, strain GC 4564
  MIC Streptococcus agalactiae (GC 4564): 0.5 µg/mL (≈ 0.341 µM)
Streptococcus sp.; inoculum 5×10^5 CFU/mL, strain GC 4565
  MIC Streptococcus pneumoniae (GC 4565): 0.25 µg/mL (≈ 0.171 µM)
Staphylococcus sp.
  MIC Coagulase Negative Staphylococcus (GC 4547): 4 µg/mL (≈ 2.73 µM)
  MIC Coagulase Negative Staphylococcus (GC 4548): 2 µg/mL (≈ 1.36 µM)
  MIC Coagulase Negative Staphylococcus (GC 4549): 2 µg/mL (≈ 1.36 µM)
  MIC Coagulase Negative Staphylococcus (GC 4551): 2 µg/mL (≈ 1.36 µM)
  MIC Coagulase Negative Staphylococcus (GC 6257): 2 µg/mL (≈ 1.36 µM)
  MIC Staphylococcus aureus (ATCC 29213): 4 µg/mL (≈ 2.73 µM)
  MIC Staphylococcus aureus (GC 1131): 4 µg/mL (≈ 2.73 µM)
  MIC Staphylococcus aureus (GC 3051): 0.5 µg/mL (≈ 0.341 µM)
  MIC Staphylococcus aureus (GC 3053): 4 µg/mL (≈ 2.73 µM)
  MIC Staphylococcus aureus (GC 4541): 1 µg/mL (≈ 0.682 µM)
  MIC Staphylococcus aureus (GC 4542): 2 µg/mL (≈ 1.36 µM)
  MIC Staphylococcus aureus (GC 4544): 4 µg/mL (≈ 2.73 µM)
  MIC Staphylococcus aureus (GC 4545): 4 µg/mL (≈ 2.73 µM)
  MIC Staphylococcus aureus-SMITH (GC 4543): 2 µg/mL (≈ 1.36 µM)
  MIC Staphylococcus haemolyticus (GC 4546): 2 µg/mL (≈ 1.36 µM)
Staphylococcus sp.; strain ATCC 29213
  MIC Staphylococcus aureus (ATCC 29213): 4 µg/mL (≈ 2.73 µM)
Staphylococcus sp.; strain GC 1131
  MIC Staphylococcus aureus (GC 1131): 4 µg/mL (≈ 2.73 µM)
Staphylococcus sp.; strain GC 3051
  MIC Staphylococcus aureus (GC 3051): 0.5 µg/mL (≈ 0.341 µM)
Staphylococcus sp.; strain GC 3053
  MIC Staphylococcus aureus (GC 3053): 4 µg/mL (≈ 2.73 µM)
Staphylococcus sp.; strain GC 4541
  MIC Staphylococcus aureus (GC 4541): 1 µg/mL (≈ 0.682 µM)
Staphylococcus sp.; strain GC 4542
  MIC Staphylococcus aureus (GC 4542): 2 µg/mL (≈ 1.36 µM)
Staphylococcus sp.; strain GC 4543
  MIC Staphylococcus aureus-SMITH (GC 4543): 2 µg/mL (≈ 1.36 µM)
Staphylococcus sp.; strain GC 4544
  MIC Staphylococcus aureus (GC 4544): 4 µg/mL (≈ 2.73 µM)
Staphylococcus sp.; strain GC 4545
  MIC Staphylococcus aureus (GC 4545): 4 µg/mL (≈ 2.73 µM)
Staphylococcus sp.; strain GC 4546
  MIC Staphylococcus haemolyticus (GC 4546): 2 µg/mL (≈ 1.36 µM)
Staphylococcus sp.; strain GC 4547
  MIC Coagulase Negative Staphylococcus (GC 4547): 4 µg/mL (≈ 2.73 µM)
Staphylococcus sp.; strain GC 4548
  MIC Coagulase Negative Staphylococcus (GC 4548): 2 µg/mL (≈ 1.36 µM)
Staphylococcus sp.; strain GC 4549
  MIC Coagulase Negative Staphylococcus (GC 4549): 2 µg/mL (≈ 1.36 µM)
Staphylococcus sp.; strain GC 4551
  MIC Coagulase Negative Staphylococcus (GC 4551): 2 µg/mL (≈ 1.36 µM)
Staphylococcus sp.; strain GC 6257
  MIC Coagulase Negative Staphylococcus (GC 6257): 2 µg/mL (≈ 1.36 µM)
Enterococcus sp.
  MIC Enterococcus avium (GC 4558): 4 µg/mL (≈ 2.73 µM)
  MIC Enterococcus faecalis (ATCC 29212): 16 µg/mL (≈ 10.9 µM)
  MIC Enterococcus faecalis (GC 2242): 16 µg/mL (≈ 10.9 µM)
  MIC Enterococcus faecalis (GC 2691): 8 µg/mL (≈ 5.46 µM)
  MIC Enterococcus faecalis (GC 3059): 8 µg/mL (≈ 5.46 µM)
  MIC Enterococcus faecalis (GC 4552): 16 µg/mL (≈ 10.9 µM)
  MIC Enterococcus faecalis (GC 4553): 16 µg/mL (≈ 10.9 µM)
  MIC Enterococcus faecalis (GC 4554): 16 µg/mL (≈ 10.9 µM)
  MIC Enterococcus faecalis (GC 6189): 8 µg/mL (≈ 5.46 µM)
  MIC Enterococcus faecium (GC 2243): 16 µg/mL (≈ 10.9 µM)
  MIC Enterococcus faecium (GC 4556): 16 µg/mL (≈ 10.9 µM)
  MIC Enterococcus faecium (GC 4557): 2 µg/mL (≈ 1.36 µM)
Enterococcus sp.; strain ATCC 29212
  MIC Enterococcus faecalis (ATCC 29212): 16 µg/mL (≈ 10.9 µM)
Enterococcus sp.; strain GC 2243
  MIC Enterococcus faecium (GC 2243): 16 µg/mL (≈ 10.9 µM)
Enterococcus sp.; strain GC 4552
  MIC Enterococcus faecalis (GC 4552): 16 µg/mL (≈ 10.9 µM)
Enterococcus sp.; strain GC 4553
  MIC Enterococcus faecalis (GC 4553): 16 µg/mL (≈ 10.9 µM)
Enterococcus sp.; strain GC 4554
  MIC Enterococcus faecalis (GC 4554): 16 µg/mL (≈ 10.9 µM)
Enterococcus sp.; strain GC 4556
  MIC Enterococcus faecium (GC 4556): 16 µg/mL (≈ 10.9 µM)
Enterococcus sp.; strain GC 4557
  MIC Enterococcus faecium (GC 4557): 2 µg/mL (≈ 1.36 µM)
Enterococcus sp.; strain GC 4558
  MIC Enterococcus avium (GC 4558): 4 µg/mL (≈ 2.73 µM)
Enterococcus sp.; strain GC 6189
  MIC Enterococcus faecalis (GC 6189): 8 µg/mL (≈ 5.46 µM)
Enterococcus sp.; inoculum 5×10^5 CFU/mL, strain GC 2242
  MIC Enterococcus faecalis (GC 2242): 16 µg/mL (≈ 10.9 µM)
Enterococcus sp.; inoculum 5×10^5 CFU/mL, strain GC 2691
  MIC Enterococcus faecalis (GC 2691): 8 µg/mL (≈ 5.46 µM)
Enterococcus sp.; inoculum 5×10^5 CFU/mL, strain GC 3059
  MIC Enterococcus faecalis (GC 3059): 8 µg/mL (≈ 5.46 µM)
